In US11000511B2, “Chemical compounds as antibiotics” (priority 2017, dated 2021):

How the values were obtained:
[1] = target: T1, purified LasB protein from P. aeruginosa (Pseudomonas aeruginosa, UniProt P14756); assay: Fluorometric assay to determine Ki (Assay 1); format: biochemical; conditions: Ki (μM) Assay 1, purified LasB, substrate Abz-Ala-Gly-Leu-Ala-p-Nitro-Benzyl-Amide 250 μM, Ki calculated from IC50; inhibitor 0.006 to 200 μM
T1 construct: purchased Merck or Charles River Laboratories
Outline: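 Purified LasB (10 to 140 ng/ml) with 250 μM Abz-Ala-Gly-Leu-Ala-p-nitrobenzylamide in 50 mM Tris-HCl pH 7.4, 2.5 mM CaCl2, 0.01% Triton X100; hydrolysis read by fluorescence (Ex 340/Em 415 nm) over 30 min at 37° C. Inhibitor 2-fold series, 0.006–200 μM (Assay 1) or 0.0016–200 μM (Assay 2); IC50 converted to Ki via Ki=IC50/(1+[S]/Km), Km=214 μM.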

[2] = target: T2, LasB elastase activity in dialysed supernatant from P. aeruginosa strain PA01 (Pseudomonas aeruginosa, UniProt P14756); assay: Elastin Congo Red assay to determine % inhibition (Assay 1); format: biochemical; conditions: read-out: Elastin hydrolysis % inhibition @ 50/25 μM inhibitor concentration Assay 1
T2 construct: uses as source of enzyme dialysed supernatant from P. aeruginosa; endogenous in cells; host or cells: P. aeruginosa strain PA01 culture supernatant, filtered and dialysed
Outline: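 Enzyme source: PA01 culture supernatant (19 h growth), filtered and dialysed into 50 mM Tris pH 7.4, 2.5 mM CaCl2. Mixed 1:1 with Elastin Congo Red (20 mg/mL) plus 0.01% Triton X-100 and compound (routinely 50 and 25 μM), 24 h at 37 °C shaking. Dye release at OD520 gives % inhibition versus DMSO.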

T2 sequence (P14756 198-498): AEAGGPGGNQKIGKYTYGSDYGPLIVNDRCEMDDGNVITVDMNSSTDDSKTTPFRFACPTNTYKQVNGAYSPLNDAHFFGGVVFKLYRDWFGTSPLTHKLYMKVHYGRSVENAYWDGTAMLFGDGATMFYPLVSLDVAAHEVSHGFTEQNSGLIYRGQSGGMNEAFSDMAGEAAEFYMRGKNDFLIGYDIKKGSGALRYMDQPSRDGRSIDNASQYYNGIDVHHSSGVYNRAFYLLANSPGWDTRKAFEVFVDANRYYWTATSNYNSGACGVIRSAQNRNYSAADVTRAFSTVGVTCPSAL
T1 sequence (P14756 198-498): as above

SMILES	Ki [1] [µM]	inhibition at 50 µM [2] [%]
CN(C)C[C@H]1C[C@H](c2ccc3nc(CNC(=O)C4(CC(=O)O)Cc5ccccc5C4)sc3c2)C1 [Example 91, 2-(2-(((6-((1 r,3r)-3-((dimethylamino)methyl)cyclobutyl)benzo[d]thiazol-2-yl)methyl)carbamoyl)-2,3-dihydro-1H-inden-2-yl)acetic acid]	< 0.3	> 60
C[N+](C)(C)C[C@H]1C[C@H](c2ccc3nc(CNC(=O)C4(CC(=O)[O-])Cc5ccccc5C4)sc3c2)C1 [Example 92, 2-[2-[[6-[(1r,3r)-3-[(trimethylammonio)methyl]cyclobutyl]-1,3-benzothiazol-2-yl]methylcarbamoyl]indan-2-yl]acetate]	0.3 to 2	> 60
CN(C)C[C@H]1C[C@@H](c2ccc3nc(CNC(=O)C4(CC(=O)O)Cc5ccccc5C4)sc3c2)C1 [Example 93, 2-(2-(((6-((1s,3s)-3-((dimethylamino)methyl)cyclobutyl)benzo[d]thiazol-2-yl)methyl)carbamoyl)-2,3-dihydro-1H-inden-2-yl)acetic acid]	< 0.3	> 60
C[N+](C)(C)C[C@H]1C[C@@H](c2ccc3nc(CNC(=O)C4(CC(=O)[O-])Cc5ccccc5C4)sc3c2)C1 [Example 94, 2-[2-[[6-[(1s,3s)-3-[(trimethylammonio)methyl]cyclobutyl]-1,3-benzothiazol-2-yl]methylcarbamoyl]indan-2-yl]acetate]	< 0.3	> 60
CN(C)CCc1ccc2nc(CNC(=O)C3(CC(=O)O)Cc4ccccc4C3)sc2c1 [Example 95, 2-[2-[[6-[2-(dimethylamino)ethyl]-1,3-benzothiazol-2-yl]methylcarbamoyl]indan-2-yl]acetic acid]	0.3 to 2	30 to 60
C[N+](C)(C)CCc1ccc2nc(CNC(=O)C3(CC(=O)[O-])Cc4ccccc4C3)sc2c1 [Example 96, 2-[2-[[6-[2-(trimethylammonio)ethyl]-1,3-benzothiazol-2-yl]methylcarbamoyl]indan-2-yl]acetate]	0.3 to 2	30 to 60
NCC1CN(c2ccc3nc(CNC(=O)C4(CC(=O)O)Cc5ccccc5C4)sc3c2)C1 [Example 99, 2-[2-[[6-[3-(aminomethyl)azetidin-1-yl]-1,3-benzothiazol-2-yl]methylcarbamoyl]indan-2-yl]acetic acid]	< 0.3	> 60
NC1CN(c2ccc3nc(CNC(=O)C4(CC(=O)O)Cc5ccccc5C4)sc3c2)C1 [Example 100, 2-[2-[[6-(3-aminoazetidin-1-yl)-1,3-benzothiazol-2-yl]methylcarbamoyl]indan-2-yl]acetic acid]	< 0.3	> 60
N[C@H]1CCN(c2ccc3nc(CNC(=O)C4(CC(=O)O)Cc5ccccc5C4)sc3c2)C1 [Example 101, 2-[2-[[6-[(3 S)-3-aminopyrrolidin-1-yl]-1,3-benzothiazol-2-yl]methylcarbamoyl]indan-2-yl]acetic acid]	0.3 to 2	> 60
N[C@@H]1CCN(c2ccc3nc(CNC(=O)C4(CC(=O)O)Cc5ccccc5C4)sc3c2)C1 [Example 102, 2-[2-[[6-[(3R)-3-aminopyrrolidin-1-yl]-1,3-benzothiazol-2-yl]methylcarbamoyl]indan-2-yl]acetic acid]	< 0.3	> 60
N[C@H]1CCN(c2ccc3sc(CNC(=O)C4(CC(=O)O)Cc5ccccc5C4)nc3c2)C1 [Example 103, 2-[2-[[5-[(3 S)-3-aminopyrrolidin-1-yl]-1,3-benzothiazol-2-yl]methylcarbamoyl]indan-2-yl]acetic acid]	0.3 to 2	> 60
N[C@@H]1CCN(c2ccc3sc(CNC(=O)C4(CC(=O)O)Cc5ccccc5C4)nc3c2)C1 [Example 104, 2-[2-[[5-[(3R)-3-aminopyrrolidin-1-yl]-1,3-benzothiazol-2-yl]methylcarbamoyl]indan-2-yl]acetic acid]	0.3 to 2	> 60
CN(C)CCNc1ccc2nc(CNC(=O)C3(CC(=O)O)Cc4ccccc4C3)sc2c1 [Example 105, 2-[2-[[6-[2-(dimethylamino)ethylamino]-1,3-benzothiazol-2-yl]methylcarbamoyl]indan-2-yl]acetic acid]	0.3 to 2	30 to 60
CN1CCN(c2ccc3sc(CNC(=O)C4(CC(=O)O)Cc5ccccc5C4)nc3c2)CC1 [Example 106, 2-[2-[[5-(4-methylpiperazin-1-yl)-1,3-benzothiazol-2-yl]methylcarbamoyl]indan-2-yl]acetic acid]	< 0.3	> 60
CN(C)CCOc1ccc2nc(CNC(=O)C3(CC(=O)O)Cc4ccccc4C3)sc2c1 [Example 110, 2-[2-[[6-[2-(dimethylamino)ethoxy]-1,3-benzothiazol-2-yl]methylcarbamoyl]indan-2-yl]acetic acid]	0.3 to 2	30 to 60
C[N+](C)(C)CCOc1ccc2nc(CNC(=O)C3(CC(=O)[O-])Cc4ccccc4C3)sc2c1 [Example 111, 2-[2-[[6-[2-(trimethylammonio)ethoxy]-1,3-benzothiazol-2-yl]methylcarbamoyl]indan-2-yl]acetate]	0.3 to 2	30 to 60
CN(C)CCOc1ccc2sc(CNC(=O)C3(CC(=O)O)Cc4ccccc4C3)nc2c1 [Example 112, 2-[2-[[5-[2-(dimethylamino)ethoxy]-1,3-benzothiazol-2-yl]methylcarbamoyl]indan-2-yl]acetic acid]	< 0.3	> 60
C[N+](C)(C)CCOc1ccc2sc(CNC(=O)C3(CC(=O)[O-])Cc4ccccc4C3)nc2c1 [Example 113, 2-[2-[[5-[2-(trimethylammonio)ethoxy]-1,3-benzothiazol-2-yl]methylcarbamoyl]indan-2-yl]acetate]	0.3 to 2	> 60
C[N+]1(C)CCC(OC(=O)[C@H](Cc2c[nH]c3ccccc23)NC(=O)C2(CC(=O)O)Cc3ccccc3C2)CC1 [Example 116, (S)-2-(2-((1-((1,1-dimethylpiperidin-1-ium-4-yl)oxy)-3-(1H-indol-3-yl)-1-oxopropan-2-yl)carbamoyl)-2,3-dihydro-1H-inden-2-yl)acetate]	0.3 to 2	> 60
Cc1nnc([C@H](Cc2c[nH]c3ccccc23)NC(=O)C2(CC(=O)O)Cc3ccccc3C2)o1 [Example 117, (S)-2-(2-((2-(1H-indol-3-yl)-1-(5-methyl-1,3,4-oxadiazol-2-yl)ethyl)carbamoyl)-2,3-dihydro-1H-inden-2-yl)acetic acid]	0.3 to 2	> 60
NCc1nnc([C@H](Cc2c[nH]c3ccccc23)NC(=O)C2(CC(=O)O)Cc3ccccc3C2)o1 [Example 118, (S)-2-(2-((1-(5-(aminomethyl)-1,3,4-oxadiazol-2-yl)-2-(1H-indol-3-yl)ethyl)carbamoyl)-2,3-dihydro-1H-inden-2-yl)acetic acid]	< 0.3	> 60
O=C(O)CC1(C(=O)NCc2nc3cnccc3s2)Cc2ccccc2C1 [Example 127, 2-[2-(thiazolo[4,5-c]pyridin-2-ylmethylcarbamoyl)indan-2-yl]acetic acid]	0.3 to 2	> 60
CN1CCc2nc(CNC(=O)C3(CC(=O)O)Cc4ccccc4C3)sc2C1 [Example 129, 2-[2-[(5-methyl-6,7-dihydro-4H-thiazolo[5,4-c]pyridin-2-yl)methylcarbamoyl]indan-2-yl]acetic acid]	0.3 to 2	30 to 60
O=C(O)CC1(C(=O)NCc2nc3cc(O)ccc3s2)Cc2ccccc2C1 [Example 130, 2-[2-[(5-hydroxy-1,3-benzothiazol-2-yl)methylcarbamoyl]indan-2-yl]acetic acid]	< 0.3	> 60
